# According to patent publication US11618743B2, “Herbicidal compounds” (SYNGENTA PARTICIPATIONS AG, priority 2017, dated 2023):
# Assays:
# Assay in all cases: Post-emergence efficacy, Method A
# Assay type in all cases: in vivo
# [1] = tested on: Echinochloa crus-galli (ECHCG); conditions: Application rate 500 g/Ha, evaluated after 13 days; for Control of weed species ECHCG after post-emergence application (100=total damage to plant; 0=no damage to plant): Method A; for Control of weed species after post-emergence application, ECHCG: 100=total damage to plant, 0=no damage
# Summary of the method: (§1)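 Foliar application to young plants (14 d post-sowing) in standard soil. Growth conditions before and after: 24/16 °C, 14 h light, 65% humidity. Percent damage read at 13 days after treatment.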
# [2] = tested on: Ipomoea hederacea (IPOHE); conditions: Application rate 500 g/Ha, evaluated after 13 days; for Control of weed species IPOHE after post-emergence application (100=total damage to plant; 0=no damage to plant): Method A; for Control of weed species after post-emergence application, IPOHE: 100=total damage to plant, 0=no damage
# Summary of the method: as §1
# [3] = tested on: Eleusine indica (ELEIN); conditions: Application rate 500 g/Ha, evaluated after 13 days; for Control of weed species ELEIN after post-emergence application (100=total damage to plant; 0=no damage to plant): Method A; for Control of weed species after post-emergence application, ELEIN: 100=total damage to plant, 0=no damage
# Summary of the method: as §1
# [4] = tested on: Amaranthus palmeri (AMAPA); conditions: Application rate 500 g/Ha, evaluated after 13 days; for Control of weed species AMAPA after post-emergence application (100=total damage to plant; 0=no damage to plant): Method A; for Control of weed species after post-emergence application, AMAPA: 100=total damage to plant, 0=no damage
# Summary of the method: as §1
# [5] = tested on: Euphorbia heterophylla (EPHHL); conditions: Application rate 500 g/Ha, evaluated after 13 days; for Control of weed species EPHHL after post-emergence application (100=total damage to plant; 0=no damage to plant): Method A; for Control of weed species after post-emergence application, EPHHL: 100=total damage to plant, 0=no damage
# Summary of the method: as §1
# [6] = tested on: Chenopodium album (CHEAL); conditions: Application rate 500 g/Ha, evaluated after 13 days; for Control of weed species CHEAL after post-emergence application (100=total damage to plant; 0=no damage to plant): Method A; for Control of weed species after post-emergence application, CHEAL: 100=total damage to plant, 0=no damage
# Summary of the method: as §1
# [7] = tested on: Digitaria sanguinalis (DIGSA); conditions: Application rate 500 g/Ha, evaluated after 13 days; for Control of weed species DIGSA after post-emergence application (100=total damage to plant; 0=no damage to plant): Method A; for Control of weed species after post-emergence application, DIGSA: 100=total damage to plant, 0=no damage
# Summary of the method: as §1
# [8] = tested on: Lolium perenne (LOLPE); conditions: Application rate 500 g/Ha, evaluated after 13 days; for Control of weed species LOLPE after post-emergence application (100=total damage to plant; 0=no damage to plant): Method A; for Control of weed species after post-emergence application, LOLPE: 100=total damage to plant, 0=no damage
# Summary of the method: as §1
# [9] = tested on: Setaria faberi (SETFA); conditions: Application rate 500 g/Ha, evaluated after 13 days; for Control of weed species SETFA after post-emergence application (100=total damage to plant; 0=no damage to plant): Method A; for Control of weed species after post-emergence application, SETFA: 100=total damage to plant, 0=no damage
# Summary of the method: as §1
SMILES,Control of weed species ECHCG after post-emergence application (100=total damage to plant; 0=no damage to plant) [1],Control of weed species IPOHE after post-emergence application (100=total damage to plant; 0=no damage to plant) [2],Control of weed species ELEIN after post-emergence application (100=total damage to plant; 0=no damage to plant) [3],Control of weed species AMAPA after post-emergence application (100=total damage to plant; 0=no damage to plant) [4],Control of weed species EPHHL after post-emergence application (100=total damage to plant; 0=no damage to plant) [5],Control of weed species CHEAL after post-emergence application (100=total damage to plant; 0=no damage to plant) [6],Control of weed species DIGSA after post-emergence application (100=total damage to plant; 0=no damage to plant) [7],Control of weed species LOLPE after post-emergence application (100=total damage to plant; 0=no damage to plant) [8],Control of weed species SETFA after post-emergence application (100=total damage to plant; 0=no damage to plant) [9],"Control of weed species after post-emergence application, ECHCG [1]","Control of weed species after post-emergence application, IPOHE [2]","Control of weed species after post-emergence application, ELEIN [3]","Control of weed species after post-emergence application, AMAPA [4]","Control of weed species after post-emergence application, CHEAL [6]","Control of weed species after post-emergence application, DIGSA [7]","Control of weed species after post-emergence application, LOLPE [8]","Control of weed species after post-emergence application, SETFA [9]","Control of weed species after post-emergence application, EPHHL [5]"
"Cc1n[n+](CCS(=O)(=O)[O-])ccc1-c1ncccn1 [Compound A88, 2-(3-methyl-4-pyrimidin-2-yl-pyridazin-1-ium-1-yl)ethanesulfonate]",60,30,90,100,60,70,90,60,70,,,,,,,,,
"CCOP(=O)(C[n+]1ccc(-c2ncccn2)cn1)OCC.O=C([O-])C(F)(F)F [Compound A230, 1-(diethoxyphosphorylmethyl)-4-pyrimidin-2-yl-pyridazin-1-ium 2,2,2-trifluoroacetate]",,,,,,,,,,60,20,10,50,60,70,0,50,
"COC(=O)C[n+]1ccc(-c2ncccn2)cn1.[Br-] [Compound A2, methyl 2-(4-pyrimidin-2-ylpyridazin-1-ium-1-yl)acetate bromide]",50,10,30,60,90,20,40,0,80,,,,,,,,,
"NC(=O)c1cnc(-c2cc[n+](CCC(=O)O)nc2)cn1 [Compound A202, 3-[4-(5-carbamoylpyrazin-2-yl)pyridazin-1-ium-1-yl]propanoic acid 2,2,2-trifluoroacetate]",,,,,,,,,,80,60,20,100,90,60,70,70,100
N#Cc1cnc(-c2cc[n+](CCS(=O)(=O)[O-])nc2)nc1 [Compound A25],70,50,50,100,40,60,50,40,60,,,,,,,,,
CCOP(=O)(CCC[n+]1ccc(-c2ncccn2)cn1)OCC.O=C([O-])C(F)(F)F [Compound A204],,,,,,,,,,0,0,0,10,20,0,0,0,0
"CCOP(=O)(O)CC[n+]1ccc(-c2ncccn2)cn1.O=C([O-])C(F)(F)F [Compound A113, ethoxy-[2-(4-pyrimidin-2-ylpyridazin-1-ium-1-yl)ethyl]phosphinate]",60,60,40,40,100,90,60,10,50,,,,,,,,,
"CCOP(=O)(CC[n+]1ccc(-c2ncccn2)cn1)OCC.O=C([O-])C(F)(F)F [Compound A124, 1-(2-diethoxyphosphorylethyl)-4-pyrimidin-2-yl-pyridazin-1-ium]",0,0,0,0,0,0,10,0,20,,,,,,,,,
CCOP(=O)(CC[n+]1ccc(-c2cnccn2)cn1)OCC.O=C([O-])C(F)(F)F [Compound A8],10,10,20,10,10,10,20,0,20,,,,,,,,,
O=c1cc(-c2cc[n+](CCCS(=O)(=O)[O-])nc2)nc[nH]1 [Compound A116],20,10,20,100,50,80,30,10,30,,,,,,,,,
CCOP(=O)(O)CCC[n+]1ccc(-c2ncccn2)cn1 [Compound A232],,,,,,,,,,100,0,50,100,90,90,20,80,
